Reference: patent publication US11285156B2, “Substituted piperazines as KRAS G12C inhibitors” (Amgen Inc., priority 2018, dated 2022)
Where two headings read alike, the source gives them in different places.

Columns and labels:
[1] = target: GDP-bound KRAS protein (aa 1-169), containing both G12C and C118A amino acid substitutions (Homo sapiens (Human), UniProt P01116, C118A/G12C); assay: Coupled nucleotide exchange assay (SOS-mediated nucleotide exchange, AlphaScreen); type: biochemical; conditions: 5 min compound pre-incubation; for IC50: read-out: Coupled exchange IC50 (5 min; μM)
Chain of GDP-bound KRAS protein (aa 1-169), containing both G12C and C118A amino acid substitutions (P01116 other isoform, or with tags, fused parts or gaps G12C/C118A): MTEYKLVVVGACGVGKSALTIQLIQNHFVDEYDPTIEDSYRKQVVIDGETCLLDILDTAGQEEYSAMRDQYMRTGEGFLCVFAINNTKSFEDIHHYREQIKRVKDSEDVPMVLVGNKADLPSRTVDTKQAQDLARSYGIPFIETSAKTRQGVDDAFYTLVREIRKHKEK

[2] = system: Phosphorylation of ERK1/2 in MIA PaCa-2 cells; assay: Phospho-ERK1/2 MSD assay in MIA PaCa-2 cells; type: cell-based; conditions: read-out: p-ERK IC50 (2 h, MiaPaCa-2; μM), 2 h compound treatment, MIA PaCa-2 cells, EGF stimulated
In short: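 Phospho-ERK1/2 measured by MSD electrochemiluminescence kit in RIPA lysates of MIA PaCa-2 cells. Cells were treated with compound titrations for 2 or 4 h at 37 °C, 5% CO2, followed by a 10 min pulse of 10 ng/mL EGF.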

[3] = system: Phosphorylation of ERK1/2 in A549 cells; assay: Phospho-ERK1/2 MSD assay in A549 cells; type: cell-based; conditions: read-out: p-ERK IC50 (2 h, A549; μM), 2 h compound treatment, A549 cells, EGF stimulated
In short: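 MSD electrochemiluminescent read-out of phospho-ERK1/2 in RIPA lysates. Cells in RPMI 1640 with 10% FBS received titrated compound for 2 or 4 h, then 10 ng/mL EGF for 10 min before ice-cold PBS wash and lysis.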

Coupled exchange IC50 (5 min; μM) [1]	SMILES	IC50 ([2]; Homo sapiens, MIA PaCa-2, 2 h)	IC50 ([3]; Homo sapiens, A549, 2 h)	IC50 [1]	IC50 [2]	IC50 [3]
0.054 µM	C=CC(=O)N1C[C@H](C)N(c2nc(=O)n(-c3c(C)ccnc3C(C)C)c3nc(-c4ccccc4C(C)O)c(Cl)cc23)C[C@H]1C (mixture of isomers) [Example 92-43, (M)-6-Chloro-4-[(2S,5R)-2,5-dimethyl-4-prop-2-enoyl-piperazin-1-yl]-7-[2-[(1RS)-1-hydroxyethyl]phenyl]-1-(2-isopropyl-4-methyl-3-pyridyl)pyrido [2,3-d]pyrimidin-2-one]	0.076 µM	> 7.5 µM	–	–	–
–	C=CC(=O)N1C[C@H](C)N(c2nc(=O)n(-c3c(N(C)C)ccnc3C(C)C)c3nc(-c4ccccc4F)c(Cl)cc23)C[C@H]1C (single isomer, unassigned) [Example 55-51-1]	–	–	0.298 µM	0.157 µM	> 7.5 µM
–	C=CC(=O)N1C[C@H](C)N(c2nc(=O)n(-c3c(N(C)C)ccnc3C(C)C)c3nc(-c4ccccc4F)c(Cl)cc23)C[C@H]1C (single isomer, unassigned) [Example 55-51-2]	–	–	0.07 µM	0.037 µM	> 7.5 µM
–	C=CC(=O)N1C[C@H](C)N(c2nc(=O)n(-c3c(CC)ccnc3C(C)C)c3nc(-c4ccccc4F)c(Cl)cc23)C[C@H]1C (single isomer, unassigned) [Example 55-58-1]	–	–	0.03 µM	0.107 µM	> 7.5 µM
–	C=CC(=O)N1C[C@H](C)N(c2nc(=O)n(-c3c(CC)ccnc3C(C)C)c3nc(-c4ccccc4F)c(Cl)cc23)C[C@H]1C (single isomer, unassigned) [Example 55-58-2]	–	–	0.092 µM	0.101 µM	> 7.5 µM
–	C=CC(=O)N1C[C@H](C)N(c2nc(=O)n(-c3c(CN4CCCC4)cccc3C(C)C)c3nc(-c4ccccc4F)c(Cl)cc23)C[C@H]1C (single isomer, unassigned) [Example 80-10-2]	–	–	0.053 µM	0.04 µM	> 7.5 µM
–	C=CC(=O)N1C[C@H](C)N(c2nc(=O)n(-c3c(CN(C)C)cccc3C(C)C)c3nc(-c4ccccc4F)c(Cl)cc23)C[C@H]1C (single isomer, unassigned) [Example 80-14-2]	0.031 µM	> 7.5 µM	0.061 µM	–	–
–	C=CC(=O)N1C[C@H](C)N(c2nc(=O)n(-c3c(CN(C)C)ccnc3C(C)C)c3nc(-c4ccccc4F)c(Cl)cc23)C[C@H]1C (single isomer, unassigned) [Example 80-16-1]	0.041 µM	> 7.5 µM	0.061 µM	–	–
–	C=CC(=O)N1C[C@H](C)N(c2nc(=O)n(-c3c(CN(C)C)ncnc3C(C)C)c3nc(-c4ccccc4F)c(Cl)cc23)C[C@H]1C (single isomer, unassigned) [Example 80-18-2]	0.044 µM	> 7.5 µM	0.11 µM	–	–
–	C=CC(=O)N1C[C@H](C)N(c2nc(=O)n(-c3c(C)cc(CN(C)C)cc3C(C)C)c3nc(-c4ccccc4F)c(F)cc23)C[C@H]1C (single isomer, unassigned) [Example 80-20-2]	–	–	0.368 µM	0.295 µM	> 7.5 µM
–	C=CC(=O)N1C[C@H](C)N(c2nc(=O)n(-c3c(C)cc(CN(C)C)cc3C(C)C)c3nc(-c4c(O)cccc4F)c(F)cc23)C[C@H]1C (single isomer, unassigned) [Example 80-21-2]	–	–	0.061 µM	0.072 µM	> 7.5 µM
–	C=CC(=O)N1C[C@H](C)N(c2nc(=O)n(-c3c(C(C)C)cnn3C(C)C)c3nc(-c4ccccc4F)c(Cl)cc23)C[C@H]1C (single isomer, unassigned) [Example 100-1-1]	–	–	0.061 µM	0.091 µM	> 7.5 µM
–	C=CC(=O)N1C[C@H](C)N(c2nc(=O)n(-c3c(C(C)C)cnn3C(C)C)c3nc(-c4ccccc4F)c(Cl)cc23)C[C@H]1C (single isomer, unassigned) [Example 100-1-2]	–	–	0.062 µM	0.098 µM	> 7.5 µM
–	C=CC(=O)N1C[C@H](C)N(c2nc(=O)n(-c3c(Cl)ncnc3C(C)C)c3nc(-c4ccccc4F)c(Cl)cc23)C[C@H]1C (single isomer, unassigned) [Example 102-5-1]	–	–	0.031 µM	0.058 µM	> 7.5 µM
